The subject of this series is CCRIS mutagenicity, Ames/micronucleus/aberration tests. Put plainly: CCRIS mutagenicity studies.

Structures are written as SMILES. Calls of active or inactive are those of the source. How the calls were made is not given here.

In the case of `Cc1ccccc1O`, the mutagenic call is, setting by setting: (Test System: Ames Salmonella typhimurium, Strain/Indicator: TA98, Metabolic Activation: Hamster, Liver, S-9, Aroclor 1254 (10%), Method: Preincubation) “inactive; negative”; (Test System: Ames Salmonella typhimurium, Strain/Indicator: TA98, Metabolic Activation: None, Method: Preincubation) “inactive; negative”; (Test System: Ames Salmonella typhimurium, Strain/Indicator: TA98, Metabolic Activation: Rat, Liver, S-9, Aroclor 1254 (10%), Method: Preincubation) “inactive; negative”; (Test System: Ames Salmonella typhimurium, Strain/Indicator: TA100, Metabolic Activation: Hamster, Liver, S-9, Aroclor 1254 (10%), Method: Preincubation) “inactive; negative”; (Test System: Ames Salmonella typhimurium, Strain/Indicator: TA100, Metabolic Activation: None, Method: Preincubation) “inactive; negative”; (Test System: Ames Salmonella typhimurium, Strain/Indicator: TA100, Metabolic Activation: Rat, Liver, S-9, Aroclor 1254 (10%), Method: Preincubation) “inactive; negative”. Moreover, the mutagenic call is, setting by setting: (Test System: Ames Salmonella typhimurium, Strain/Indicator: TA1535, Metabolic Activation: Hamster, Liver, S-9, Aroclor 1254 (10%), Method: Preincubation) “inactive; negative”; (Test System: Ames Salmonella typhimurium, Strain/Indicator: TA1535, Metabolic Activation: None, Method: Preincubation) “inactive; negative”; (Test System: Ames Salmonella typhimurium, Strain/Indicator: TA1535, Metabolic Activation: Rat, Liver, S-9, Aroclor 1254 (10%), Method: Preincubation) “inactive; negative”; (Test System: Ames Salmonella typhimurium, Strain/Indicator: TA1537, Metabolic Activation: Hamster, Liver, S-9, Aroclor 1254 (10%), Method: Preincubation) “inactive; negative”; (Test System: Ames Salmonella typhimurium, Strain/Indicator: TA1537, Metabolic Activation: None, Method: Preincubation) “inactive; negative”; (Test System: Ames Salmonella typhimurium, Strain/Indicator: TA1537, Metabolic Activation: Rat, Liver, S-9, Aroclor 1254 (10%), Method: Preincubation) “inactive; negative”.

As to `CC1CN(N=O)CC(C)O1` (stereo not drawn), the mutagenic call was “active; positive” (Test System: AMES SALMONELLA TYPHIMURIUM, Strain/Indicator: TA100, Metabolic Activation: HAMSTER, LIVER, S-9, 3-METHYLCHOLANTHRENE, Method: PREINCUBATION); “active; positive” (Test System: AMES SALMONELLA TYPHIMURIUM, Strain/Indicator: TA100, Metabolic Activation: HAMSTER, LIVER, S-9, PHENOBARBITAL, Method: PREINCUBATION); “active; positive” (Test System: AMES SALMONELLA TYPHIMURIUM, Strain/Indicator: TA100, Metabolic Activation: HAMSTER, LIVER, S-9, Method: PREINCUBATION); “inactive; negative” (Test System: AMES SALMONELLA TYPHIMURIUM, Strain/Indicator: TA100, Metabolic Activation: HUMAN, LIVER, S-9, Method: PREINCUBATION); “active; positive” (Test System: AMES SALMONELLA TYPHIMURIUM, Strain/Indicator: TA100, Metabolic Activation: MONKEY, LIVER, S-9, Method: PREINCUBATION); “active; positive” (Test System: AMES SALMONELLA TYPHIMURIUM, Strain/Indicator: TA100, Metabolic Activation: MOUSE, LIVER, S-9, 3-METHYLCHOLANTHRENE, Method: PREINCUBATION). Moreover, the mutagenic call (Test System: AMES SALMONELLA TYPHIMURIUM, Strain/Indicator: TA100, Metabolic Activation: MOUSE, LIVER, S-9, PHENOBARBITAL, Method: PREINCUBATION) is “active; positive”; the mutagenic call (Test System: AMES SALMONELLA TYPHIMURIUM, Strain/Indicator: TA100, Metabolic Activation: MOUSE, LIVER, S-9, Method: PREINCUBATION) is “active; positive”; the mutagenic call (Test System: AMES SALMONELLA TYPHIMURIUM, Strain/Indicator: TA100, Metabolic Activation: NONE, Method: PREINCUBATION) was “inactive; negative”; the mutagenic call (Test System: AMES SALMONELLA TYPHIMURIUM, Strain/Indicator: TA100, Metabolic Activation: RABBIT, LIVER, S-9, Method: PREINCUBATION) was “active; positive”; the mutagenic call (Test System: AMES SALMONELLA TYPHIMURIUM, Strain/Indicator: TA100, Metabolic Activation: RAT, LIVER, CYTOSOL, PCB, Method: PREINCUBATION) is “inactive; negative”; the mutagenic call (Test System: AMES SALMONELLA TYPHIMURIUM, Strain/Indicator: TA100, Metabolic Activation: RAT, LIVER, MICROSOMES AND CYTOSOL, PCB, Method: PREINCUBATION) was “active; positive”. In addition, the mutagenic call is, setting by setting: (Test System: AMES SALMONELLA TYPHIMURIUM, Strain/Indicator: TA100, Metabolic Activation: RAT, LIVER, MICROSOMES AND G6PDH, PCB, Method: PREINCUBATION) “active; positive”; (Test System: AMES SALMONELLA TYPHIMURIUM, Strain/Indicator: TA100, Metabolic Activation: RAT, LIVER, MICROSOMES, PCB, Method: PREINCUBATION) “active; positive”; (Test System: AMES SALMONELLA TYPHIMURIUM, Strain/Indicator: TA100, Metabolic Activation: RAT, LIVER, S-9 (HEATED), PCB, Method: PREINCUBATION) “inactive; negative”; (Test System: AMES SALMONELLA TYPHIMURIUM, Strain/Indicator: TA100, Metabolic Activation: RAT, LIVER, S-9, 3-METHYLCHOLANTHRENE, Method: PREINCUBATION) “active; positive”; (Test System: AMES SALMONELLA TYPHIMURIUM, Strain/Indicator: TA100, Metabolic Activation: RAT, LIVER, S-9, PCB, Method: PREINCUBATION) “active; positive”; (Test System: AMES SALMONELLA TYPHIMURIUM, Strain/Indicator: TA100, Metabolic Activation: RAT, LIVER, S-9, PHENOBARBITAL, Method: PREINCUBATION) “active; positive”. The mutagenic call (Test System: AMES SALMONELLA TYPHIMURIUM, Strain/Indicator: TA100, Metabolic Activation: RAT, LIVER, S-9, Method: PREINCUBATION) is “active; positive”; the mutagenic call (Test System: AMES SALMONELLA TYPHIMURIUM, Strain/Indicator: TA100, Metabolic Activation: RAT, LIVER, S-9 WITHOUT NADP+, PCB, Method: PREINCUBATION) is “inactive; negative”; the mutagenic call (Test System: AMES SALMONELLA TYPHIMURIUM, Strain/Indicator: TA100, Method: PREINCUBATION) is “active; positive”.

Values taken from PubChem BioAssay AID1259407 (Chemical Carcinogenesis Research Information System (CCRIS), 2018).
